Measured values reported in US20260224571A1, “AZACYCLOALKANE COMPOUND AND PHARMACEUTICAL COMPOSITION, AND USE THEREOF” (Prime Gene Therapeutics Co., Ltd., priority 2023, published 2026).

Key:
[1] = test system: phosphorylation of myosin light chain T18/S19; assay: In Cell Western for phosphorylation of myosin light chain in A7r5 cells; type: cell-based; details: rat smooth muscle cell line A7r5, 1 hour with compound, phospho-MLC-T18/S19; read-out: cellular activity IC50
Excerpt: The rat smooth muscle cell line A7r5 was used, and the A7r5 cell culture conditions were DMEM containing 10% FBS. Phspho-MLC-T18/S19 specific antibody and a second detection antibody were used to detect the phosphorylation level of myosin light chain by In Cell Western. Cells treated with positive compounds were used as positive controls, while the group without compounds but with compound solvents was used as negative controls. DRAQ5 stained cell nuclei were used as internal references. GraphPad Prism 7.0 software was used, and fitting was carried out by using a non-linear regression curve with varying slopes to determine the absolute IC50 value.
On the first day, A7r5 cells were resuspended in serum-free medium and seeded into 384 wells of PDL coated transparent black plates at a density of 5000 cells per well. Serum starvation culture was performed for 4 hours, and the cells were incubated with the compound in serum-free medium for 1 hour. 50 μL of 8% PFA (polyformaldehyde) was added to each well and fixed at room temperature for 1 hour. The liquid in the wells was discard and 90 μL of ice methanol was added to each well to permeabilize the cells at 4° C. for 1 hour. Then, PBST (0.1% Tween20-PBS) was added using an automatic separator to wash three times. After patting the plate for drying, 50 μL blocking solution was added to each well for sealing at room temperature for 1 hour. The phspho-MLC-T18/S19 specific antibody was diluted with the blocking solution at a ratio of 1:200. After adding 20 μL to each well, incubation was carried out overnight at 4° C. with a sealed film.
On the second day, the liquid in the wells was discarded and PBST was added using an automatic separator to wash the plate 5 times. After patting the plate for drying, the second detection antibody was diluted with blocking solution at a ratio of 1:800 and DRAQ5 at a ratio of 1:1000. After adding 20 μL to each well, incubation was carried out at room temperature for 1 hour. Then, the liquid in the wells was discarded and PBST was added using an automatic separator to wash the plate 3 times, followed by adding ddH2O to wash the plate 3 times. After patting the plate for drying, it was scanned using a LICOR Odyssey near-infrared imaging scanner.

ROCK1 = ROCK1 (Homo sapiens, UniProt Q13464); assay: ROCK1 kinase enzymatic activity (HTRF, STK2 substrate); type: biochemical; details: ROCK1 kinase reacted at room temperature for 20 minutes
Excerpt: (§1) The kinase activity data was expressed by comparing the kinase activity of the test compound and that of the blank group (containing only DMSO), and the IC50 value was obtained by curve fitting using Prism software (GraphPad7.0).

ROCK2 = ROCK2 (Homo sapiens, UniProt O75116); assay: ROCK2 kinase enzymatic activity (HTRF, STK2 substrate); type: biochemical; details: ROCK2 kinase reacted at room temperature for 30 minutes
Excerpt: as §1

ROCK1, sequence (Q13464 whole entry): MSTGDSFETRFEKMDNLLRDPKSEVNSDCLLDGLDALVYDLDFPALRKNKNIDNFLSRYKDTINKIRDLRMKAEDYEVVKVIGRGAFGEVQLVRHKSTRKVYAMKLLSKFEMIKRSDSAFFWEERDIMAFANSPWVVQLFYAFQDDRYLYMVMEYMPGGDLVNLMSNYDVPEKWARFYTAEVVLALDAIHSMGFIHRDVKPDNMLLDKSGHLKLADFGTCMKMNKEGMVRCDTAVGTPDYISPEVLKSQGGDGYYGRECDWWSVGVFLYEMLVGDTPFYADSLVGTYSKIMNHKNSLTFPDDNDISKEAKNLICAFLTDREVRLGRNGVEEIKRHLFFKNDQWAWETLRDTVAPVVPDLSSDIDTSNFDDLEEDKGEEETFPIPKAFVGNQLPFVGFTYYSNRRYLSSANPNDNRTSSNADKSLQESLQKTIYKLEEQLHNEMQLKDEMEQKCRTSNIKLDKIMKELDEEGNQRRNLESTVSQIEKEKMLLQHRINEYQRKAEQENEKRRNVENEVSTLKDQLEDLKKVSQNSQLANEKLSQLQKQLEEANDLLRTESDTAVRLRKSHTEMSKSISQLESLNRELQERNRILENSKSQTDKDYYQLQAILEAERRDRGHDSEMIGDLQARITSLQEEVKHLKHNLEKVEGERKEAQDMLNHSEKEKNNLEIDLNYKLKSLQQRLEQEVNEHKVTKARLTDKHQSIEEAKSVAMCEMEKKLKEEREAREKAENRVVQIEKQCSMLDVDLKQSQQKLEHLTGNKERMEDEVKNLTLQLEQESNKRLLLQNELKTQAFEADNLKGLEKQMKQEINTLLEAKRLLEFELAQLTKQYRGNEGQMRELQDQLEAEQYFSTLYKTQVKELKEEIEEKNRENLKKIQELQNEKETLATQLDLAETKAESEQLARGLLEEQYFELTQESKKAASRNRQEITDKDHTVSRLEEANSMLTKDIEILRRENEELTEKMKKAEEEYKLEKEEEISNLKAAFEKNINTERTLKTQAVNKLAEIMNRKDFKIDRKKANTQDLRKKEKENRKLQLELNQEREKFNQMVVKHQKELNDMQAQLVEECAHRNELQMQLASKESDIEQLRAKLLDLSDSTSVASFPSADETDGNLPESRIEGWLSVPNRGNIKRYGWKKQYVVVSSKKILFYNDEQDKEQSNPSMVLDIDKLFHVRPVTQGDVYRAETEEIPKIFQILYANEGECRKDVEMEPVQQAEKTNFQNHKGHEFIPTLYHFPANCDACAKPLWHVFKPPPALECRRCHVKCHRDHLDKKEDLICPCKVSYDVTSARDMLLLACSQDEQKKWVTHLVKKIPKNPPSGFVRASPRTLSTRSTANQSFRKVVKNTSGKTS
ROCK2, sequence (O75116 whole entry): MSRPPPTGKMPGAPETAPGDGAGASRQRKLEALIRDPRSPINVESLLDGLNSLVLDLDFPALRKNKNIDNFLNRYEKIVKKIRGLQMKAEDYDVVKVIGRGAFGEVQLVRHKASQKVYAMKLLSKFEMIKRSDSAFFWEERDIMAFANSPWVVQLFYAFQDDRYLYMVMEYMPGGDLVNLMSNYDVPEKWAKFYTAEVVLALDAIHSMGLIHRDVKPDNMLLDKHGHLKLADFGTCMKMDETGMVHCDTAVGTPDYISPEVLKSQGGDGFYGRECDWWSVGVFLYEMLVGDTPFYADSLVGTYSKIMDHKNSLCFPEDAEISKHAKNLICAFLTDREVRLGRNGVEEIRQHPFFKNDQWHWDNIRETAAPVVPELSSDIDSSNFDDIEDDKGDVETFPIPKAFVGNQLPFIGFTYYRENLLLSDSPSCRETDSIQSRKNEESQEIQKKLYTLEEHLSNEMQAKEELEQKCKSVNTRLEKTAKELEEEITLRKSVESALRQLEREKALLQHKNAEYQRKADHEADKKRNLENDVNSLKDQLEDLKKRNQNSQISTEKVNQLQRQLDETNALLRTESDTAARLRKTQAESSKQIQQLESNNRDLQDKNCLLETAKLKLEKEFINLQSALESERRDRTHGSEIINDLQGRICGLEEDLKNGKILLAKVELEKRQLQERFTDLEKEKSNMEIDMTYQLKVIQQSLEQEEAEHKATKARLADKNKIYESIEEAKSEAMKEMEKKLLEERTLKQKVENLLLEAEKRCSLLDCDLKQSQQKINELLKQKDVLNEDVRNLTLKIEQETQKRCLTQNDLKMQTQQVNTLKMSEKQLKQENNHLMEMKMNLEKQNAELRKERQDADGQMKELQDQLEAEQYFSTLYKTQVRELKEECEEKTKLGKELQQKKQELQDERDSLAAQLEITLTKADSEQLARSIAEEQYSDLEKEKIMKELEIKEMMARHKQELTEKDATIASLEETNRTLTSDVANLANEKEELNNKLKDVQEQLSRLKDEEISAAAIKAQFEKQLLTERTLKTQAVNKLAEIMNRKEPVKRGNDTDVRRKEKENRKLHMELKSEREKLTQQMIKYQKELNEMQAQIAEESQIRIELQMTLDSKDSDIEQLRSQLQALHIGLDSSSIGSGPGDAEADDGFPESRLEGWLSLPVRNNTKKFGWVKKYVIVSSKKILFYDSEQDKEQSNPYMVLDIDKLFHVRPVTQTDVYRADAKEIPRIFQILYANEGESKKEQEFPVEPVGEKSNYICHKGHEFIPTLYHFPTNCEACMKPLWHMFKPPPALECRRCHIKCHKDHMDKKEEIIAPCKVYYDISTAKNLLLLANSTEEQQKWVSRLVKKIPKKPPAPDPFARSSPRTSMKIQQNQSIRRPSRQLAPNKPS

Row | SMILES | IC50 [1] | IC50 (ROCK1) | IC50 (ROCK2)
1 | N#CCC1(n2cc(-c3ncnc4[nH]ccc34)c(N)n2)CN(S(=O)(=O)CC(F)(F)F)C1 [Example 1, 2-(3-(3-amino-4-(7-H-pyrrolo[2,3-d]pyrimidin-4-yl)-1H-pyrazol-1-yl)-1-((2,2,2-trifluoroethyl)sulfonyl)azetidine-3-yl)acetonitrile] | 5.01 µM | < 0.01 µM | < 0.01 µM
2 | N#CCC1(n2cc(-c3ncnc4[nH]ccc34)c(N)n2)CN(S(=O)(=O)C(F)(F)F)C1 [Example 2, 2-(3-(3-amino-4-(7H-pyrrolo[2,3-d]pyrimidin-4-yl)-1H-pyrazol-1-yl)-1-((trifluoromethyl)sulfonyl)azetidine-3-yl)acetonitrile] | 0.011 µM | < 0.005 µM | < 0.005 µM
3 | CS(=O)(=O)N1CCC(CC#N)(n2cc(-c3ncnc4[nH]ccc34)c(N)n2)C1 (centres unmarked) [Example 3, 2-(3-(3-amino-4-(7H-pyrrolo[2,3-d]pyrimidin-4-yl)-1H-pyrazol-1-yl)-1-(methylsulfonyl)pyrrolidin-3-yl)acetonitrile] | 0.178 µM | < 0.005 µM | < 0.005 µM
4 | CC(=O)Nc1nn(C2(CC#N)CN(S(=O)(=O)C(F)(F)F)C2)cc1-c1ncnc2[nH]ccc12 [Example 5] | 0.951 µM | < 0.005 µM | < 0.005 µM
5 | CCNc1nn(C2(CC#N)CN(S(=O)(=O)C(F)(F)F)C2)cc1-c1ncnc2[nH]ccc12 [Example 6, 2-(3-(3-(ethylamino)-4-(7H-pyrrolo[2,3-d]pyrimidin-4-yl)-1H-pyrazol-1-yl)-1-((trifluoromethyl)sulfonyl)azetidine-3-yl)acetonitrile] | 0.181 µM | < 0.005 µM | < 0.005 µM
6 | CN(C)CCNc1nn(C2(CC#N)CN(S(=O)(=O)C(F)(F)F)C2)cc1-c1ncnc2[nH]ccc12 [Example 7, 2-(3-(3-((2-(dimethylamino)ethyl)amino)-4-(7H-pyrrolo[2,3-d]pyrimidin-4-yl)-1H-pyrazol-1-yl)-1-((trifluoromethyl)sulfonyl)azetidine-3-yl)acetonitrile] | 0.132 µM | < 0.005 µM | < 0.005 µM
7 | CS(=O)(=O)CS(=O)(=O)N1CC(CC#N)(n2cc(-c3ncnc4[nH]ccc34)c(N)n2)C1 [Example 8] | 0.152 µM | < 0.005 µM | < 0.005 µM
8 | N#CCNC(=O)N1CC(CC#N)(n2cc(-c3ncnc4[nH]ccc34)c(N)n2)C1 [Example 18, 3-(3-amino-4-(7H-pyrrolo[2,3-d]pyrimidin-4-yl)-1H-pyrazol-1-yl)-N,3-bis(cyanomethyl)azetidine-1-formamide] | 4.11 µM | < 0.005 µM | < 0.005 µM
9 | COc1nsc(NC(=O)N2CC(CC#N)(n3cc(-c4ncnc5[nH]ccc45)c(N)n3)C2)n1 [Example 19, 3-(3-amino-4-(7H-pyrrolo[2,3-d]pyrimidin-4-yl)-1H-pyrazol-1-yl)-3-(cyanomethyl)-N-(3-methoxy-1,2,4-thiadiazol-5-yl)azetidine-1-formamide] | > 10 µM | < 0.01 µM | < 0.01 µM
10 | N#CCC1(n2cc(-c3ncnc4[nH]ccc34)c(N)n2)CN(C(=O)[C@H]2C[C@@H]2F)C1 [Example 31, 2-(3-(3-amino-4-(7H-pyrrolo[2,3-d]pyrimidin-4-yl)-1H-pyrazol-1-yl)-1-((1R, 2S)-2-fluorocyclopropane-1-carbonyl)azetidine-3-yl)acetonitrile] | 0.381 µM | < 0.005 µM | < 0.005 µM
11 | N#CCC1(n2cc(-c3ncnc4[nH]ccc34)c(N)n2)CN(C(=O)[C@@H]2CC2(F)F)C1 [Example 34, (S)-2-(3-(3-amino-4-(7H-pyrrolo[2,3-d]pyrimidin-4-yl)-1H-pyrazol-1-yl)-1-(2,2-difluorocyclopropane-1-carbonyl)azetidine-3-yl)acetonitrile] | 0.551 µM | < 0.01 µM | < 0.01 µM
12 | CS(=O)(=O)N1CC(CC#N)(n2cc(-c3cc(NC4CCOCC4)ncn3)c(N)n2)C1 [Example 75, 2-(3-(3-amino-4-(6-((tetrahydro-2H-pyran-4-yl)amino)pyrimidin-4-yl)-1H-pyrazol-1-yl)-1-(methylsulfonyl)azetidine-3-yl)acetonitrile] | – | > 0.1 µM | > 0.1 µM
13 | CS(=O)(=O)N1CC(CC#N)(n2cc(-c3cc(NCC4CCOCC4)ncn3)c(N)n2)C1 [Example 76, 2-(3-(3-amino-4-(6-((tetrahydro-2H-pyran-4-yl)methyl)amino)pyrimidin-4-yl-1H-pyrazol-1-yl)-1-(methylsulfonyl)azetidine-3-yl)acetonitrile] | – | > 0.1 µM | > 0.1 µM
14 | CNc1cc(-c2cn(C3(CC#N)CN(S(C)(=O)=O)C3)nc2N)ncn1 [Example 77, 2-(3-(3-amino-4-(6-(methylamino)pyrimidin-4-yl)-1H-pyrazol-1-yl)-1-(methylsulfonyl)azetidine-3-yl)acetonitrile] | – | > 0.1 µM | > 0.1 µM
15 | CS(=O)(=O)N1CC(CC#N)(n2cc(-c3ccnc(NCCO)n3)c(N)n2)C1 [Example 78] | – | > 0.1 µM | > 0.1 µM
16 | CS(=O)(=O)N1CC(CC#N)(n2cc(-c3ccnc(NCc4ccccc4)n3)c(N)n2)C1 [Example 79, 2-(3-(3-amino-4-(2-(benzylamino)pyrimidin-4-yl)-1H-pyrazol-1-yl)-1-(methylsulfonyl)azetidine-3-yl)acetonitrile] | – | > 0.1 µM | > 0.1 µM
17 | CCS(=O)(=O)N1CC(CC#N)(n2cc(-c3cc(-c4cnn(C)c4)nn4ccnc34)c(N)n2)C1 [Example 80] | – | > 0.1 µM | > 0.1 µM
18 | CCS(=O)(=O)N1CC(CC#N)(n2cc(-c3cc(-c4cnn(C)c4)cn4ncnc34)c(N)n2)C1 [Example 81] | – | > 0.1 µM | > 0.1 µM
19 | CCS(=O)(=O)N1CC(CC#N)(n2cc(-c3cc(Cl)cn4ncnc34)c(N)n2)C1 [Example 83, 2-(3-(3-amino-4-(6-chloro-[1,2,4]triazolo[1,5-a]pyridin-8-yl)-1H-pyrazol-1-yl)-1-(ethylsulfonyl)azetidine-3-yl)acetonitrile] | – | > 0.1 µM | > 0.1 µM
20 | CCS(=O)(=O)N1CC(CC#N)(n2cc(-c3cc(Cl)nc4ccnn34)c(N)n2)C1 [Example 84, 2-(3-(3-amino-4-(5-chloropyrazolo[1,5-a]pyrimidin-7-yl)-1H-pyrazol-1-yl)-1-(ethylsulfonyl)azetidine-3-yl)acetonitrile] | – | > 0.1 µM | > 0.1 µM
21 | CCS(=O)(=O)N1CC(CC#N)(n2cc(-c3cc(NC)nc4ccnn34)c(N)n2)C1 [Example 85, 2-(3-(3-amino-4-(5-(methylamino)pyrazolo[1,5-a]pyrimidin-7-yl)-1H-pyrazol-1-yl)-1-(ethylsulfonyl)azetidine-3-yl)acetonitrile] | – | > 0.1 µM | > 0.1 µM
22 | CC(N)CS(=O)(=O)N1CC(CC#N)(n2cc(-c3ncnc4[nH]ccc34)c(N)n2)C1 (centres unmarked) [Example 86, 2-(3-(3-amino-4-(7H-pyrrolo[2,3-d]pyrimidin-4-yl)-1H-pyrazol-1-yl)-1-((2-aminopropyl)sulfonyl)azetidine-3-yl)acetonitrile] | – | < 0.005 µM | < 0.005 µM
23 | Cc1ccc(C(=O)OCc2ccc([C@@H](CN)C(=O)Nc3ccc4cnccc4c3)cc2)c(C)c1 [Netarsudil, reference compound] | 0.288 µM | – | –
